Reference: the supplement of paper PMC9663587

Tests used:
YKL-5-124 = compound: C=CC(=O)Nc1ccc(C(=O)Nc2[nH]nc3c2CN(C(=O)N[C@H](CN(C)C)c2ccccc2)C3(C)C)cc1 [YKL-5-124]; experiment: increase in dead-cell fraction, 72 h; higher = more death;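 further: breast cancer cell lines in 384-well plates, stained with Hoechst plus LIVE/DEAD far red dye and imaged, cells above an LDR intensity threshold counted dead, Hoechst-negative corpses included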
BSJ-03-123 = compound: CC(=O)c1c(C)c2cnc(Nc3ccc(N4CCN(CCOCCOCCOCCNC(=O)COc5cccc6c5C(=O)N(C5CCC(=O)NC5=O)C6=O)CC4)cn3)nc2n(C2CCCC2)c1=O [BSJ-03-123]; experiment: as above
[1] = compound: CC(=O)c1c(C)c2cnc(Nc3ccc(N4CCNCC4)cn3)nc2n(C2CCCC2)c1=O; experiment: as above
[2] = compound: CCN1CCN(Cc2ccc(Nc3ncc(F)c(-c4cc(F)c5nc(C)n(C(C)C)c5c4)n3)nc2)CC1; experiment: as above
Neratinib/HKI272 [3] = compound: T1, CCOc1cc2ncc(C#N)c(Nc3ccc(OCc4ccccn4)c(Cl)c3)c2cc1NC(=O)/C=C/CN(C)C [Neratinib/HKI272]; experiment: as above
[4] = compound: CCc1cnn2c(NCc3ccc[n+]([O-])c3)cc(N3CCCC[C@H]3CCO)nc12; experiment: as above
LEE011/Ribociclib = compound: CN(C)C(=O)c1cc2cnc(Nc3ccc(N4CCNCC4)cn3)nc2n1C1CCCC1 [LEE011/Ribociclib]; experiment: as above
THZ531 = compound: CN(C)C/C=C/C(=O)Nc1ccc(C(=O)N2CCC[C@@H](Nc3ncc(Cl)c(-c4c[nH]c5ccccc45)n3)C2)cc1 [THZ531]; experiment: as above
THZ1 = compound: CN(C)C/C=C/C(=O)Nc1ccc(C(=O)Nc2cccc(Nc3ncc(Cl)c(-c4c[nH]c5ccccc45)n3)c2)cc1 [THZ1]; experiment: as above
Flavopiridol [5] = compound: T2, CN1CC[C@H](c2c(O)cc(O)c3c(=O)cc(-c4ccccc4Cl)oc23)[C@H](O)C1 [Flavopiridol]; experiment: as above
Neratinib/HKI272 [6] = compound: T1, Neratinib/HKI272; experiment: GR value, 72 h; higher = faster growth (1 = untreated, <0 = killing);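 further: breast cancer and non-malignant breast epithelial lines, nine half-log doses, viable cells counted by Hoechst and LIVE/DEAD dye imaging versus time-zero plates and DMSO controls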
Flavopiridol [7] = compound: T2, Flavopiridol; experiment: as above

HCC1569
increase in dead-cell fraction (YKL-5-124; 0.001 µM): 0.0331 | increase in dead-cell fraction (YKL-5-124; 0.003162 µM): 0.014 | increase in dead-cell fraction (YKL-5-124; 0.01 µM): -0.0042 | increase in dead-cell fraction (YKL-5-124; 0.03162 µM): 0.0104 | increase in dead-cell fraction (YKL-5-124; 0.1 µM): -0.0403 | increase in dead-cell fraction (YKL-5-124; 0.3162 µM): 0.0447 | increase in dead-cell fraction (YKL-5-124; 1 µM): 0.0404 | increase in dead-cell fraction (YKL-5-124; 3.162 µM): 0.0237 | increase in dead-cell fraction (YKL-5-124; 10 µM): 0.151 | increase in dead-cell fraction (BSJ-03-123; 0.001 µM): 0.0046 | increase in dead-cell fraction (BSJ-03-123; 0.003162 µM): -0.0135 | increase in dead-cell fraction (BSJ-03-123; 0.01 µM): 0.0005 | increase in dead-cell fraction (BSJ-03-123; 0.03162 µM): 0.0168 | increase in dead-cell fraction (BSJ-03-123; 0.1 µM): 0.002 | increase in dead-cell fraction (BSJ-03-123; 0.3162 µM): 0.0007 | increase in dead-cell fraction (BSJ-03-123; 1 µM): 0.0247 | increase in dead-cell fraction (BSJ-03-123; 3.162 µM): 0.0066 | increase in dead-cell fraction (BSJ-03-123; 10 µM): 0.0866 | increase in dead-cell fraction ([1]; 0.0003162 µM): 0.0023 | increase in dead-cell fraction ([1]; 0.001 µM): -0.0102 | increase in dead-cell fraction ([1]; 0.003162 µM): 0.0038 | increase in dead-cell fraction ([1]; 0.01 µM): 0.0052 | increase in dead-cell fraction ([1]; 0.03162 µM): -0.0056 | increase in dead-cell fraction ([1]; 0.1 µM): -0.0096 | increase in dead-cell fraction ([1]; 0.3162 µM): 0.0042 | increase in dead-cell fraction ([1]; 1 µM): 0.0001 | increase in dead-cell fraction ([1]; 3.162 µM): -0.0109 | increase in dead-cell fraction ([2]; 0.001 µM): -0.0009 | increase in dead-cell fraction ([2]; 0.003162 µM): 0.0054 | increase in dead-cell fraction ([2]; 0.01 µM): 0.0105 | increase in dead-cell fraction ([2]; 0.03162 µM): 0.0034 | increase in dead-cell fraction ([2]; 0.1 µM): -0.0024 | increase in dead-cell fraction ([2]; 0.3162 µM): -0.0047 | increase in dead-cell fraction ([2]; 1 µM): 0.0011 | increase in dead-cell fraction ([2]; 3.162 µM): 0.0024 | increase in dead-cell fraction ([2]; 10 µM): 0.0361 | increase in dead-cell fraction (Neratinib/HKI272 [3]; 0.0003162 µM): -0.0105 | increase in dead-cell fraction (Neratinib/HKI272 [3]; 0.001 µM): 0.0063 | increase in dead-cell fraction (Neratinib/HKI272 [3]; 0.003162 µM): 0.0037 | increase in dead-cell fraction (Neratinib/HKI272 [3]; 0.01 µM): 0.0107 | increase in dead-cell fraction (Neratinib/HKI272 [3]; 0.03162 µM): 0.0135 | increase in dead-cell fraction (Neratinib/HKI272 [3]; 0.1 µM): 0.0196 | increase in dead-cell fraction (Neratinib/HKI272 [3]; 0.3162 µM): 0.0247 | increase in dead-cell fraction (Neratinib/HKI272 [3]; 1 µM): 0.0283 | increase in dead-cell fraction (Neratinib/HKI272 [3]; 3.162 µM): 0.0338 | increase in dead-cell fraction ([4]; 0.0001 µM): -0.0022 | increase in dead-cell fraction ([4]; 0.0003162 µM): -0.0018 | increase in dead-cell fraction ([4]; 0.001 µM): -0.0077 | increase in dead-cell fraction ([4]; 0.003162 µM): -0.0052 | increase in dead-cell fraction ([4]; 0.01 µM): 0.0106 | increase in dead-cell fraction ([4]; 0.03162 µM): 0.112 | increase in dead-cell fraction ([4]; 0.1 µM): 0.155 | increase in dead-cell fraction ([4]; 0.3162 µM): 0.138 | increase in dead-cell fraction ([4]; 1 µM): 0.141 | increase in dead-cell fraction (LEE011/Ribociclib; 0.001 µM): 0.0294 | increase in dead-cell fraction (LEE011/Ribociclib; 0.003162 µM): 0.0001 | increase in dead-cell fraction (LEE011/Ribociclib; 0.01 µM): -0.0082 | increase in dead-cell fraction (LEE011/Ribociclib; 0.03162 µM): 0.0025 | increase in dead-cell fraction (LEE011/Ribociclib; 0.1 µM): -0.0135 | increase in dead-cell fraction (LEE011/Ribociclib; 0.3162 µM): -0.0045 | increase in dead-cell fraction (LEE011/Ribociclib; 1 µM): -0.0042 | increase in dead-cell fraction (LEE011/Ribociclib; 3.162 µM): -0.0048 | increase in dead-cell fraction (LEE011/Ribociclib; 10 µM): -0.0015 | increase in dead-cell fraction (THZ531; 0.0001 µM): 0.0019 | increase in dead-cell fraction (THZ531; 0.0003162 µM): -0.0034 | increase in dead-cell fraction (THZ531; 0.001 µM): -0.0007 | increase in dead-cell fraction (THZ531; 0.003162 µM): 0.0032 | increase in dead-cell fraction (THZ531; 0.01 µM): 0.0103 | increase in dead-cell fraction (THZ531; 0.03162 µM): 0.0155 | increase in dead-cell fraction (THZ531; 0.1 µM): 0.161 | increase in dead-cell fraction (THZ531; 0.3162 µM): 0.273 | increase in dead-cell fraction (THZ531; 1 µM): 0.0822 | increase in dead-cell fraction (THZ1; 0.0001 µM): -0.004 | increase in dead-cell fraction (THZ1; 0.0003162 µM): -0.0128 | increase in dead-cell fraction (THZ1; 0.001 µM): 0.0063 | increase in dead-cell fraction (THZ1; 0.003162 µM): -0.0051 | increase in dead-cell fraction (THZ1; 0.01 µM): 0.0163 | increase in dead-cell fraction (THZ1; 0.03162 µM): 0.0231 | increase in dead-cell fraction (THZ1; 0.1 µM): 0.208 | increase in dead-cell fraction (THZ1; 0.3162 µM): 0.147 | increase in dead-cell fraction (THZ1; 1 µM): 0.166 | increase in dead-cell fraction (Flavopiridol [5]; 0.0001 µM): -0.0248 | increase in dead-cell fraction (Flavopiridol [5]; 0.0003162 µM): 0.001 | increase in dead-cell fraction (Flavopiridol [5]; 0.001 µM): 0.0101 | increase in dead-cell fraction (Flavopiridol [5]; 0.003162 µM): 0.0075 | increase in dead-cell fraction (Flavopiridol [5]; 0.01 µM): -0.0095 | increase in dead-cell fraction (Flavopiridol [5]; 0.03162 µM): -0.0064 | increase in dead-cell fraction (Flavopiridol [5]; 0.1 µM): 0.0067 | increase in dead-cell fraction (Flavopiridol [5]; 0.3162 µM): 0.0986 | increase in dead-cell fraction (Flavopiridol [5]; 1 µM): 0.102 | GR value (Neratinib/HKI272 [6]; 0.0003162 µM): 0.95 GR | GR value (Neratinib/HKI272 [6]; 0.001 µM): 0.948 GR | GR value (Neratinib/HKI272 [6]; 0.003162 µM): 0.863 GR | GR value (Neratinib/HKI272 [6]; 0.01 µM): 0.708 GR | GR value (Neratinib/HKI272 [6]; 0.03162 µM): 0.612 GR | GR value (Neratinib/HKI272 [6]; 0.1 µM): 0.537 GR | GR value (Neratinib/HKI272 [6]; 0.3162 µM): 0.363 GR | GR value (Neratinib/HKI272 [6]; 1 µM): 0.225 GR | GR value (Neratinib/HKI272 [6]; 3.162 µM): 0.124 GR | GR value (Flavopiridol [7]; 0.0001 µM): 1.24 GR | GR value (Flavopiridol [7]; 0.0003162 µM): 1.13 GR | GR value (Flavopiridol [7]; 0.001 µM): 0.828 GR | GR value (Flavopiridol [7]; 0.003162 µM): 1.19 GR | GR value (Flavopiridol [7]; 0.01 µM): 1.02 GR | GR value (Flavopiridol [7]; 0.03162 µM): 0.846 GR | GR value (Flavopiridol [7]; 0.1 µM): 0.422 GR | GR value (Flavopiridol [7]; 0.3162 µM): 0.0517 GR | GR value (Flavopiridol [7]; 1 µM): -0.284 GR
